# “And” between values parts separate entries of the source, which are not always exact repeats. Equal values may be shown once. Where a name gives a salt, the structure may show the parent alone.
# Legend:
# PEA1 cells = assay: MTT cytotoxicity assay, PEA1; assay type: cell-based, human; conditions: Homo sapiens, PEA1, 72 h
# Experimental: (§1) All cell lines were obtained from the American Type Culture Collection (ATCC) and cultured in the specified medium supplemented with 10% fetal bovine serum, 100 IU/mL penicillin, and 100 μg/mL streptomycin at 37°C in a humidified 5% CO2/95% air incubator. Synthesis of new compounds is described in S1 File, and >95% purity of RA475, Up284 and its analogs were confirmed by NMR and MS. To assess drug cytotoxicity, cells were seeded at 2,500 cells/well (10,000 cells/well for MM lines) in 100 μL medium in 96-well plate as triplicates and after 24 h treated with compounds for a further 72 h. To assess cytotoxicity, the cells were incubated for 2 h at 37°C according to the manufacturer’s protocol with the Thiazolyl Blue Tetrazolium Bromide (20 μL/well of 5 mg/mL stock solution in water) (Sigma, M5655) and A570 measured using a Benchmark Plus microplate spectrophotometer (BIO-RAD). IC50 was estimated using Graphpad Prism 7 software.
# (§2) Modifications of Up284 were sought to improve its drug-like properties without significant compromise of its activity in vivo, and several new compounds were synthesized (S1 File). Based on our prior studies of its pharmacophore, the central ring nitrogen was the most logical for addition of charged moieties, including RA475 and RA484. We also examined a change to either 3,4 spiro rings (RA477, RA479), or addition of 3-Fluoro substitutions (RA482) (S1 File). Our focus is developing iRPN13 to treat ovarian cancer resistant to standard of care drug regimens.
# A wash-out experiment was performed to assess reversibility of the toxicity. PEA1 cells were treated with RA475 for 1 h before the medium was replaced with fresh culture medium, and the cells were then allowed to grow for another 71 hours (PEA1-WO). In parallel, PEA1 cells were incubated with RA475 continuously for 72 h. […] Possible reasons include slow uptake of RA475, reversible binding and neutralization by antioxidants in the medium.
# To study the effect of RA475 in combination with approved therapeutics (DNA damaging agents or radiation) an MTT assay was performed using various concentrations of both drugs. Briefly PEA1 and OVCAR3 cells were each treated with drug combination (RA475 plus cisplatin) for 72 h in a checker board analysis and cell viability was measured using MTT assay. The data were analyzed and plotted using the Synergy Finder web application.
# PEA2 = assay: MTT cytotoxicity assay, PEA2; assay type: cell-based; conditions: Homo sapiens; PEA2, 72 h, MTT; read-out: IC50
# Experimental: as §1, §2
# [1] = LogD measurement, shake-flask octanol/PBS pH 7.4; assay type: physicochemical; conditions: octanol/PBS pH 7.4, single injections 1-3
# Experimental: Incubations were carried out in Eppendorf-type polypropylene microtubes in triplicates. A 2.5 μL aliquot of 20 mM DMSO stock of a test compound was added into the previously mutually saturated mixture containing 500 μL of PBS (pH 7.4) and 500 μL of octanol. The solution was allowed to mix in a rotator for 1 hour at 30 rpm. Phase separation was assured by centrifugation for 2 min at 6000 rpm. The octanol phase was diluted 100-fold with 40% acetonitrile, and the aqueous phase (PBS buffer) was diluted 10-fold. The samples (both phases) were analyzed using an HPLC system coupled with a tandem mass spectrometer. […] Calculations of the partition ratios were carried out using the equation below. D=do.So/dp.Sp where:
# So–peak area of the analyte in octanol phase
# SP–peak area of the analyte in PBS buffer
# do–dilution coefficient for octanol phase
# [2] = cited from earlier work
# [3] = tested on: spontaneous genetically-engineered peritoneal tumor (shp53, AKT, c-Myc); assay: Spontaneous GEMM of primary peritoneal/ovarian cancer; assay type: in vivo, mouse; conditions: C57BL/6; RA475 40 mg/kg IP every 3 days (12 doses); cisplatin 5 mg/Kg weekly (5 doses alone, 3 in combination)
# Experimental: To induce IP tumor formation in immunocompetent mice, oncogenes (shp53, AKT, c-Myc), luciferase and the Sleeping Beauty (SB) transposase (10 μg/plasmid) were diluted in 500 μL of PBS and injected IP into female C57BL/6 mice. The mice were anesthetized by intramuscular injection of 50–100μL of a cocktail of ketamine 16 mg/mL / 3 mg/mL xylazine. The plasmid-injected mice were electroporated (EP) by the BTX ECM 830 square wave EP generator (BTX) (5 pulses, 200 V for 100 ms/pulse, 100 ms intervals between each pulse) with the caliper electrode (BTX) held across the waist of mouse. The mice were followed by IVIS imaging weekly for tracking tumor growth. The mice were sacrificed when the bioluminescence signal reached 10^9 photons/sec/cm^2/sr, or had enlarged abdomens due to the production of ascites, or had health conditions and/or criteria under which early euthanasia was required by the protocol. To track peritoneal tumor growth, bioluminescence imaging was performed by the IVIS Spectrum2000 (PerkinElmer) as the plasmid expressing SB transposase also produces luciferase. Briefly, the mice were injected IP with D-luciferin (GoldBio). After 10 min, the mice were anesthetized with isoflurane, and imaged by the IVIS Spectrum under the auto exposure mode. Bioluminescence in the peritoneal region was quantified as total photon counts/sec/cm^2/sr using Living Image 3.0 Software (Perkin Elmer).
# GEMM better mimic the spontaneous development of cancers in an immune competent host than transplantable tumor lines. Female C57BL/6 mice were co-injected IP with sleeping beauty vector and plasmids expressing carrying shp53, AKT, c-Myc and firefly luciferase genes, followed by electroporation (EP) to deliver these plasmid DNA into the peritoneal cavity cells wherein they integrate randomly into their genome. After 7 days mice were imaged by IVIS200 for bioluminescence and randomized. Four groups (n = 8) were treated IP with vehicle or RA475 (40mg/kg, IP, every 3 days) or Cisplatin (5 mg/Kg, once a week) or the combination of RA475 (40mg/Kg, IP, every 3 days) plus Cisplatin (5 mg/Kg, once a week). […] While cisplatin reduced tumor growth, it led to severe toxicity including weight loss >20% that was not evident with RA475 alone.
# Fig 7 Administration of RA475, cisplatin or the combination to mice bearing spontaneous, genetically-engineered model ovarian/peritoneal cancer. Female C57BL/6 mice were co-injected IP with sleeping beauty vector and plasmids expressing carrying shp53, AKT, c-Myc and firefly luciferase genes, followed by electroporation (EP) to deliver these plasmid DNA into the peritoneal cavity cells wherein they integrate randomly into their genome. After 7 days mice were imaged by Xenogen IVIS200 for bioluminescence and randomized. […]
Compound,IC50 (PEA1 cells) [nM],IC50 (PEA2) [nM],also measured
"N#Cc1ccc(/C=C2/C(=O)/C(=C/c3ccc(C#N)cc3)C23CCN(C(=N)N)C3)cc1 [RA477, 1,3-bis((E)-4-cyanobenzylidene)-2-oxo-6-azaspiro[3.4]octane-6-carboximidamide dihydrochloride]",331,312,
"N#Cc1ccc(/C=C2/C(=O)/C(=C/c3ccc(C#N)cc3)C23CCN(C(=N)N2CCOCC2)CC3)cc1 [RA484, 4,4'-((1E,1'E)-(7-(imino(morpholino)methyl)-2-oxo-7-azaspiro[3.5]nonane-1,3-diylidene)bis(methaneylylidene))dibenzonitrile]",479,522,
COC(=O)Nc1nc2ccc(C(=O)c3ccccc3)cc2[nH]1 [Mebendazole],,,D [1]: 8.61E+02 and 8.97E+02 and 8.85E+02
"N#Cc1ccc(/C=C2/C(=O)/C(=C/c3ccc(C#N)c(F)c3)C23CCN(C(=N)N)CC3)cc1F [RA482, 1,3-bis((E)-4-cyano-3-fluorobenzylidene)-2-oxo-7-azaspiro[3.5]nonane-7-carboximidamide dihydrochloride]",396,410,
"CC(C)C[C@H](NC(=O)[C@H](CCc1ccccc1)NC(=O)CN1CCOCC1)C(=O)N[C@@H](Cc1ccccc1)C(=O)N[C@@H](CC(C)C)C(=O)[C@@]1(C)CO1 [Carfilzomib, carfilzomib]",,,access to the brain [2]: mostly excluded from the brain
"N.N.[Cl][Pt][Cl] [cisplatin, reference compound]",,,"tumor burden by bioluminescence [3]: significantly better delayed, but did not reduce, tumor burden"
"N#Cc1ccc(/C=C2/C(=O)/C(=C/c3ccc(C#N)c(F)c3)C23CCN(C(=N)N)C3)cc1F [RA479, 1,3-bis((E)-4-cyano-3-fluorobenzylidene)-2-oxo-6-azaspiro[3.4]octane-6-carboximidamide dihydrochloride]",350,320,

# Source: paper PMC11239005, “Preclinical studies of RA475, a guanidine-substituted spirocyclic candidate RPN13/ADRM1 inhibitor for treatment of ovarian cancer” (PLOS ONE, 2024)
